The values that follow come from ChEMBL document CHEMBL1201862, “PubChem BioAssay data set” (2004).

Each structure is given as a SMILES string.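 A five-concentration, 48-hour dose response in 96-well plates underlies each endpoint, interpolated linearly between surrounding concentrations. At the GI50, growth is halved.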 The source made the active and inactive calls. Rule as the data show it: active = GI50 up to about 1.1 µM and inactive = higher. Bounds are passed on as bounds.

Among the test systems are DLD-1; DMS-114; DMS-273; HOP-18; KM-20L2; LXFL 529; M19-MEL; XF498; RXF 631.
Holding throughout (experiment): NCI tumour cell line growth inhibition, 48 h

Consider `COc1ccc2c3c([nH]c2c1[N+](=O)[O-])C(C)N(C)CC3` (stereo not drawn), for which the GI50 is > 100 µM (inactive) in the test with DLD-1; > 100 µM (inactive) in the test with DMS-114; > 100 µM (inactive) in the test on DMS-273; 19.4 µM (inactive) in the test on HOP-18; 62.4 µM (inactive) in the test on KM-20L2; 69 µM (inactive) in the test with LXFL 529. Also, the GI50 in the test on M19-MEL and with XF498 was > 100 µM (inactive) each time.
Turning to `O=C1[C@H](Cl)[C@H]2c3cc4ccccc4nc3Oc3ccccc3N12`, the GI50 with DLD-1 was 84.9 µM (inactive); in the test with DMS-114, 20.9 µM (inactive); in the test on DMS-273, 33.3 µM (inactive); in the test with KM-20L2 it was 43.4 µM (inactive); in the test with LXFL 529 it was 34 µM (inactive); with M19-MEL, 34.8 µM (inactive).
Consider `COc1nc(NC2OCC(OC(C)=O)C(OC(C)=O)C2OC(C)=O)c(-c2csc(N)n2)c(=O)n1C` (stereo not drawn), for which the GI50 in the test on DLD-1, with DMS-114, in the test on HOP-18, in the test on KM-20L2, in the test on LXFL 529 and in the test on M19-MEL was > 100 µM (inactive) throughout. In addition, the GI50 in the test on RXF 631 was > 100 µM (inactive).
With `COC(=O)[C@@]12C(=O)C=CC(=O)C1C1C(=CC2C)OC2OC3(CCCCC3)OC21` (stereo partly drawn), the GI50 in the test with DLD-1 was 18.5 µM (inactive); with DMS-114, 15.7 µM (inactive); in the test on DMS-273 it was 19 µM (inactive); in the test on HOP-18 it was 20.2 µM (inactive); in the test on KM-20L2 it was 20.5 µM (inactive); in the test with LXFL 529, 13.5 µM (inactive). Further, the GI50 with M19-MEL was 19.2 µM (inactive).
As to `Cc1cccc(C)c1NC(=O)CCCC(=O)C(C#N)c1ccccc1` (stereo not drawn), the GI50 was > 100 µM (inactive) in the test with DLD-1; > 10 µM (inactive) in the test on DMS-273; > 10 µM (inactive) in the test on KM-20L2; > 100 µM (inactive) with LXFL 529; > 100 µM (inactive) in the test with M19-MEL; > 100 µM (inactive) in the test with RXF 631. In addition, in the test with XF498, the GI50 was > 10 µM (inactive).
Consider `Cc1c(C(=O)/C=C/c2ccccc2O)c(=O)n(-c2ccccc2)n1C`, for which the GI50 is 14.3 µM (inactive) in the test on DLD-1; 24.6 µM (inactive) in the test with DMS-114; 22.2 µM (inactive) with DMS-273; 31.6 µM (inactive) in the test on KM-20L2; 16.7 µM (inactive) in the test on LXFL 529; 23.9 µM (inactive) in the test on M19-MEL. Moreover, the GI50 with XF498 was 19.1 µM (inactive).
Regarding `O=C(O)c1c2c(c(C(=O)O)c3ccccc13)-c1ccccc1-2`, the GI50 in the test with DLD-1 was 41.4 µM (inactive); with DMS-114 it was 74.1 µM (inactive); in the test with DMS-273, 49.3 µM (inactive); with HOP-18, 20.4 µM (inactive); in the test with KM-20L2, 42.7 µM (inactive); in the test on LXFL 529 it was 39.8 µM (inactive). Besides, the GI50 in the test with M19-MEL is 69 µM (inactive); with XF498 it was 35.5 µM (inactive).
As for `Cc1cc(CS(=O)(=O)/C=C/c2ccccc2[N+](=O)[O-])c(CS(=O)(=O)/C=C/c2ccccc2[N+](=O)[O-])cc1C`, the GI50 was 45.1 µM (inactive) with DMS-114; > 100 µM (inactive) with DMS-273; > 100 µM (inactive) in the test with KM-20L2; > 100 µM (inactive) in the test with LXFL 529; > 100 µM (inactive) in the test on M19-MEL; 15.5 µM (inactive) in the test on XF498.
On to `O=C(O)c1c(-c2cccc3ccccc23)sc(-c2cccc3ccccc23)c1C(=O)O`, for which the GI50 in the test on DLD-1 is > 100 µM (inactive); in the test with DMS-114, > 100 µM (inactive); with DMS-273, > 100 µM (inactive); in the test with HOP-18, 96.2 µM (inactive); in the test on KM-20L2, 50 µM (inactive); with LXFL 529 it was > 100 µM (inactive). The GI50 with M19-MEL is > 100 µM (inactive); in the test on XF498 it was 18.2 µM (inactive).
In the case of `COc1cc2c(c(OC)c1OC)-c1ccc(SC)c(=O)cc1C(CC(=O)Oc1ccc(F)cc1)C2` (stereo not drawn), the GI50 in the test with DLD-1 was 0.288 µM (active); in the test with DMS-114 it was 0.26 µM (active); in the test on DMS-273, 0.193 µM (active); with HOP-18, 0.53 µM (active); with KM-20L2 it was 0.124 µM (active); in the test with LXFL 529, 0.31 µM (active). Moreover, the GI50 with M19-MEL is 0.236 µM (active); in the test with XF498, 0.318 µM (active).
As for `O=C(N/C(=C\c1ccc(/C=C(\NC(=O)c2ccccc2)c2nc3cc(Cl)ccc3[nH]2)cc1)c1nc2cc(Cl)ccc2[nH]1)c1ccccc1`, the GI50 in the test on DLD-1 was 27.7 µM (inactive); with DMS-114 it was 22.9 µM (inactive); in the test with DMS-273 it was 13.8 µM (inactive); with HOP-18, 8.91 µM (inactive); in the test with KM-20L2, 18 µM (inactive); in the test with LXFL 529, 22.9 µM (inactive). Besides, the values for the GI50 in the test on M19-MEL and in the test on XF498 were 32.2 µM (inactive) and 35.1 µM (inactive), respectively.
In the case of `COC(=O)c1ccccc1NCc1cc(O)ccc1O`, the GI50 with DLD-1 is 20.2 µM (inactive); with DMS-273 it was 51.5 µM (inactive); with HOP-18, 14.5 µM (inactive); in the test with KM-20L2, > 100 µM (inactive); with LXFL 529 it was 17.5 µM (inactive); with M19-MEL, 17.5 µM (inactive). The GI50 in the test on XF498 is 17.1 µM (inactive).
As to `COc1cc2c(cc1OC)[Se]c1cc(OC)c(OC)cc1[Se]2`, the GI50 in the test with DLD-1 is > 10 µM (inactive); in the test on DMS-114 it was 5.61 µM (inactive); in the test on DMS-273, 38.1 µM (inactive); in the test on HOP-18, 16.6 µM (inactive); with KM-20L2 it was > 10 µM (inactive); in the test with LXFL 529, > 10 µM (inactive). The GI50 with M19-MEL and with XF498 was > 10 µM (inactive) in each case.
Regarding `O=C(CO)C1CC2C=CC1C2` (stereo not drawn), the GI50 in the test with DMS-114, in the test on DMS-273, in the test with LXFL 529, in the test with M19-MEL, with RXF 631 and with XF498 was > 100 µM (inactive) each time.
With `CC1=C(c2cc(C(=O)Nc3ccc(Cl)c(Cl)c3)nc(N)n2)Sc2ccccc2N1`, the GI50 with DLD-1, with DMS-114, in the test with DMS-273, in the test on HOP-18, with KM-20L2 and with LXFL 529 was > 100 µM (inactive) each time. Besides, the GI50 in the test on M19-MEL and in the test with XF498 was > 100 µM (inactive) in each case.
`CCc1cc(CCC(=O)Nc2c(C)cccc2C)n[nH]1`: the GI50 in the test with DLD-1, in the test on DMS-273, in the test with HOP-18, with KM-20L2, with LXFL 529 and in the test on M19-MEL was > 100 µM (inactive) in each case. In addition, the GI50 with RXF 631 and with XF498 was > 100 µM (inactive) in each case.
For `CCN(CC)C(=O)C/C(C)=N/NC(=O)c1ccncc1`, the GI50 in the test on DLD-1, in the test on DMS-114, in the test with DMS-273, in the test with KM-20L2, in the test on LXFL 529 and in the test with XF498 was > 100 µM (inactive) in each case.
As to `O=C1C2CCN(CC2)C1CN1CCOCC1` (stereo not drawn), the GI50 with DLD-1 is 1.65 µM (inactive); with DMS-273 it was 11.8 µM (inactive); with HOP-18, 7.59 µM (inactive); in the test with KM-20L2 it was 18.2 µM (inactive); with LXFL 529 it was 2 µM (inactive); with M19-MEL, 13.4 µM (inactive). Also, the GI50 in the test with RXF 631 is 16.9 µM (inactive); in the test on XF498 it was 5.05 µM (inactive).
For `C/C(=N\NC(=O)c1ccccc1O)c1cccc(/C(C)=N/NC(=O)c2ccccc2O)n1`, the GI50 in the test on DMS-114 is 2.66 µM (inactive); with LXFL 529, 2.22 µM (inactive); with XF498 it was 18.6 µM (inactive).
For the molecule `CC1=CC(=O)c2c(C=O)c(O)c(O)c(C(C)C)c2C1=O`, the GI50 in the test on DLD-1 was 23.9 µM (inactive); with DMS-114, 22.6 µM (inactive); with DMS-273 it was 31 µM (inactive); with HOP-18, 25.9 µM (inactive); in the test on KM-20L2, 29.1 µM (inactive); in the test on LXFL 529, 16.5 µM (inactive). Moreover, the results for the GI50 with M19-MEL and in the test with XF498 were 37.9 µM (inactive) and 20.6 µM (inactive), respectively.
In the case of `CC1=C(O)C(=O)C2C(=O)C1C1Cc3ccccc3C21` (stereo not drawn), the GI50 in the test with DLD-1, in the test with DMS-273, in the test on LXFL 529, in the test on M19-MEL, in the test with RXF 631 and with XF498 was > 100 µM (inactive) in each case.
On to `CC(=O)OCc1cc2c(s1)C(=O)c1sccc1C2=O`, for which the GI50 was 0.187 µM (active) with DLD-1; 0.149 µM (active) in the test with DMS-114; 0.155 µM (active) in the test on DMS-273; 0.145 µM (active) in the test with HOP-18; 2.24 µM (inactive) in the test with KM-20L2; 0.308 µM (active) with LXFL 529. The GI50 in the test on M19-MEL is < 0.01 µM (active).
Consider `c1ccc2c(c1)OCCOCCOc1ccccc1OCCO2`, for which the GI50 in the test on DLD-1 is 61.9 µM (inactive); in the test on DMS-114 it was 84.1 µM (inactive); in the test on DMS-273, 41.2 µM (inactive); with HOP-18, 34.2 µM (inactive); with KM-20L2, 29.8 µM (inactive); with LXFL 529, 68.5 µM (inactive). Besides, in the test with M19-MEL, the GI50 was 41.9 µM (inactive).
On to `O=C1CC(c2ccccc2)NCN1` (stereo not drawn), for which the GI50 in the test with DLD-1, with DMS-114, in the test with DMS-273, with HOP-18, with KM-20L2 and in the test on LXFL 529 was > 100 µM (inactive) each time. In addition, the GI50 in the test on M19-MEL is > 100 µM (inactive).
With `COc1c(O)c2c3c(cc(C)cc3c1C(C)C)OC2`, the GI50 with DLD-1, in the test with DMS-273, in the test with HOP-18, in the test on KM-20L2, with LXFL 529 and in the test on M19-MEL was > 100 µM (inactive) throughout. Further, the GI50 in the test with XF498 was > 100 µM (inactive).
Regarding `CC(C)Cn1cnc2c(Sc3c([N+](=O)[O-])ncn3C)nc(N)nc21`, the GI50 in the test on DMS-114, with DMS-273, in the test with KM-20L2, in the test with LXFL 529 and in the test with M19-MEL was > 100 µM (inactive) each time.
For `O=C(CSc1nnc[nH]1)C[P+](c1ccccc1)(c1ccccc1)c1ccccc1`, the GI50 in the test on DLD-1 was > 100 µM (inactive); with DMS-114, 97.1 µM (inactive); in the test on DMS-273 it was > 100 µM (inactive); in the test on KM-20L2, > 100 µM (inactive); in the test with LXFL 529, > 100 µM (inactive); in the test with M19-MEL it was > 100 µM (inactive). Moreover, in the test with XF498, the GI50 was 85.1 µM (inactive).
